Values after ≈ are worked out from the molar mass of the structure shown. Read-outs that look alike come from different tables or passages of the source. Each block holds one compound with its values, some of them ahead of it.
Experiments:
[1] = tested on: mice; experiment: Intracerebral toxicity in mice (LD50); type: in vivo
From the text: (§1) As indicated above, the new non-ionic compounds according to the invention have shown markedly low levels of toxicity, especially in intracerebral tests. […] It will be seen that all the new compounds listed are very much better than the known compounds in the intracerebral test.
(§2) Intravenous and Intracerebral Toxicity
(§3) Most of the compounds were so inert that it was not physically possible to inject sufficient substance to kill 50% of the mice and in such cases only a minimum value can be given for the LD50.

[2] = tested on: mice; experiment: Intravenous toxicity in mice (LD50); type: in vivo
From the text: as §1, §2, §3

[3] = Solubility in water; type: physicochemical; details: for solubility: water
[4] = Osmolality of aqueous solution; type: physicochemical; details: 37° C.; 300 mg I/ml
Experimental: As indicated above, the compounds according to the invention are of low osmolality as compared to conventional ionic contrast agents and many of the compounds show even lower osmolality values than would have been expected. The observed osmolality in each case would be expected to be about 0.8 mol/kg but compounds 3, 33, 35, 44 and 11 identified in Table I have shown osmolality values of 0.47, 0.48, 0.61, 0.53 and 0.48 mol/kg respectively at 37° C. (300 mg I ml). The last two compounds in Table 2, which are ionic compounds shown for comparison, have osmolality values of about 1.6 mol/kg.

[5] = known compounds, dose 0.05 ml/20 g mouse, concentration not given
[6] = concentration administered 280 mgI/ml, N-methylglucamine salt
[7] = room temperature, read-out: Solubility in water at room temperature (class)
[8] = 400 mgI/ml, dose 0.05 ml/20 g mouse
[9] = 300 mgI/ml, dose 0.10 ml/20 g mouse
[10] = concentration administered 300 mgI/ml
[11] = 300 mgI/ml, dose 0.05 ml/20 g mouse
[12] = room temperature, figure in parentheses, read-out: Solubility in water at room temperature
[13] = 400 mgI/ml, dose 0.10 ml/20 g mouse

solubility [3, 7]: > 500 mg/mL
SMILES: CC(=O)N(C)c1c(I)cc(I)c(C(=O)N(C)C[C@H](O)[C@@H](O)[C@H](O)[C@H](O)CO)c1I [Compound 31, N-(3-N-methylacetamido-2,4,6-triiodobenzoyl)-N-methylglucamine]

solubility [3, 7]: > 500 mg/mL
SMILES: CC(=O)N(C)c1c(I)cc(I)c(C(=O)N[C@H]2C(O)O[C@H](CO)[C@@H](O)[C@@H]2O)c1I (stereo partly drawn) [Compound 32, N-(3-N-methylacetamido-2,4,6-triodobenzoyl)-D-glucosamine]

solubility [3, 12]: 213 mg/mL (≈ 298 mM)
solubility [3, 7]: 200 to 500 mg/mL (≈ 280 to 699 mM)
SMILES: CC(=O)Nc1c(I)c(C(=O)N(CCO)CCO)c(I)c(N(C)C(C)=O)c1I [Compound 34, N-(N-methyl-3,5-diacetamido-2,4,6-triiodobenzoyl)-N,N-di-(β-hydroxyethyl)-amine]

solubility [3, 12]: 4 mg/mL (≈ 5.59 mM)
solubility [3, 7]: < 200 mg/mL
SMILES: CC(=O)N(C)c1c(I)c(C(=O)NCCO)c(I)c(N(CCO)C(C)=O)c1I [Compound 37, N-[3-N-methylacetamido-5-N-(β-hydroxyethyl)-acetamido-2,4,6-triiodobenzoyl]-ethanolamine]

solubility [3, 12]: 255 mg/mL (≈ 350 mM)
solubility [3, 7]: 200 to 500 mg/mL (≈ 274 to 686 mM)
SMILES: CC(=O)N(C)c1c(I)c(C(=O)N(C)CCO)c(I)c(N(CCO)C(C)=O)c1I [Compound 38, N-[3-N-methylacetamido-5-N-(β-hydroxyethyl)-acetamido-2,4,6-triiodobenzoyl]-N-methylethanolamine]

solubility [3, 7]: > 500 mg/mL
SMILES: CC(=O)N(C)c1c(I)c(C(=O)N(CCO)CCO)c(I)c(N(CCO)C(C)=O)c1I [Compound 39, N-[3-N-methylacetamido-5-N-(β-hydroxyethyl)-acetamido-2,4,6-triiodobenzoyl]-diethanolamine]

solubility [3, 12]: 2.6 mg/mL (≈ 3.49 mM)
solubility [3, 7]: < 200 mg/mL
SMILES: CC(=O)N(C)c1c(I)c(C(=O)NCC(O)CO)c(I)c(N(CCO)C(C)=O)c1I (stereo not drawn) [Compound 40, N-[3-N-methylacetamido-5-N-(β-hydroxyethyl)-acetamido-2,4,6-triiodobenzoyl]-N-(2,3-dihydroxypropyl)-amine]

solubility [3, 12]: 8.6 mg/mL (≈ 11.1 mM)
solubility [3, 7]: < 200 mg/mL
SMILES: CC(=O)N(C)c1c(I)c(C(=O)NC(CO)(CO)CO)c(I)c(N(CCO)C(C)=O)c1I [Compound 41, N-[3-N-methylacetamido-5-N-(β-hydroxyethyl)-acetamido-2,4,6-triiodobenzoyl]-N-[tris-(hydroxymethyl)-methyl]-amine]

solubility [3, 12]: 214 mg/mL (≈ 287 mM)
solubility [3, 7]: 200 to 500 mg/mL (≈ 268 to 671 mM)
SMILES: CC(=O)N(CCO)c1c(I)c(C(=O)NCCO)c(I)c(N(CCO)C(C)=O)c1I [Compound 45, N-[3,5-bis-N-(β-hydroxyethyl)-acetamido-2,4,6-triiodobenzoyl]-ethanolamine]

More lines, now with the values behind:

SMILES: CNC(=O)c1c(I)c(NC(C)=O)c(I)c(C(=O)O)c1I [5-Acetamido-2,4,6-triiodo-N-methylisophthalamic acid, reference compound]
Intracerebral LD50 [1, 5]: 210 mgI/kg
Intravenous LD50 [2, 6]: 6000 mgI/kg

SMILES: CC(=O)N(C)c1c(I)cc(I)c(C(=O)NC[C@H](O)[C@@H](O)[C@H](O)[C@H](O)CO)c1I [Compound 1, N-(3-N-methylacetamido-2,4,6-triiodobenzoyl)-glucamine]
solubility [3, 7]: > 500 mg/mL

SMILES: CC(=O)N(C)c1c(I)c(C(=O)N(C)CC(O)CO)c(I)c(N(CCO)C(C)=O)c1I (stereo not drawn) [Compound 4, N-[3-N-(β-hydroxyethyl)-acetamido-5-N-methylacetamido-2,4,6-triiodobenzoyl]-N-methyl-2,3-dihydroxypropylamine]
Intracerebral LD50 [1, 8]: > 1000 mgI/kg
solubility [3, 7]: > 500 mg/mL

SMILES: CC(=O)N(CCO)c1c(I)c(C(=O)N(CCO)CCO)c(I)c(N(CCO)C(C)=O)c1I [Compound 5, N-[N,N'-di-(β-hydroxyethyl)-3,5-diacetamido-2,4,6-triiodobenzoyl]-diethanolamine]
solubility [3, 7]: > 500 mg/mL

SMILES: CNC(=O)c1c(I)c(NC(C)=O)c(I)c(C(=O)N(C)C[C@H](O)[C@@H](O)[C@H](O)[C@H](O)CO)c1I [Compound 6]
Intracerebral LD50 [1, 9]: > 1500 mgI/kg
Intravenous LD50 [2, 10]: 10000 mgI/kg
solubility [3, 7]: > 500 mg/mL

SMILES: CC(=O)NCc1c(I)c(NC(C)=O)c(I)c(C(=O)N(C)C[C@H](O)[C@@H](O)[C@H](O)[C@H](O)CO)c1I [Compound 7, N-(3-Acetamido-5-acetamidomethyl-2,4,6-triiodobenzoyl)-N-methylglucamine]
solubility [3, 7]: > 500 mg/mL

SMILES: CC(=O)N(C)c1c(I)c(C(=O)N[C@H]2C(O)O[C@H](CO)[C@@H](O)[C@@H]2O)c(I)c(N(CCO)C(C)=O)c1I (stereo partly drawn) [Compound 10, N-[3-N-(β-hydroxyethyl)-acetamido-5-N-methylacetamido-2,4,6-triiodobenzoyl]-glucosamine]
Intracerebral LD50 [1, 11]: > 750 mgI/kg
Intracerebral LD50 [1, 9]: > 1500 mgI/kg
Intravenous LD50 [2, 10]: 8250 mgI/kg
solubility [3, 7]: > 500 mg/mL

SMILES: CC(=O)N(CCO)c1c(I)c(C(=O)N[C@H]2C(O)O[C@H](CO)[C@@H](O)[C@@H]2O)c(I)c(N(CCO)C(C)=O)c1I (stereo partly drawn) [Compound 12, N-[N,N'-di-(β-hydroxyethyl)-3,5-diacetamido-2,4,6-triiodobenzoyl]-glucosamine]
Intracerebral LD50 [1, 9]: > 1500 mgI/kg
Intravenous LD50 ([2]; concentration administered 300 mgI/ml, dose 0.8 ml/20 g mouse): > 12000 mgI/kg
solubility [3, 7]: > 500 mg/mL

SMILES: CC(=O)Nc1c(I)c(NC(C)=O)c(I)c(C(=O)N[C@H]2C(O)O[C@H](CO)[C@@H](O)[C@@H]2O)c1I (stereo partly shown) [Compound 14, N-(3,5-diacetamido-2,4,6-triiodobenzoyl)-glucosamine]
solubility [3, 7]: > 500 mg/mL

SMILES: CC(=O)Nc1c(I)c(C(=O)N[C@@H](CO)[C@@H](O)[C@H](O)[C@H](O)CO)c(I)c(N(C)C(C)=O)c1I [Compound 15, N-(N-methyl-3,5-diacetamido-2,4,6-triiodobenzoyl)-2-glucamine]
Intracerebral LD50 [1, 9]: > 1500 mgI/kg
Intravenous LD50 ([2]; concentration administered 300 mgI/ml, dose 1.0 ml/20 g mouse): > 15000 mgI/kg
solubility [3, 7]: > 500 mg/mL

SMILES: CNC(=O)c1c(I)c(NC(C)=O)c(I)c(C(=O)N[C@H]2C(O)O[C@H](CO)[C@@H](O)[C@@H]2O)c1I (stereo partly drawn) [Compound 19, N-(3-acetamido-5-N-methylcarbamoyl-2,4,6-triiodobenzoyl)-D-glucosamine]
solubility ([3]; 28°, read-out: Solubility in water at 28°): 14 mg/mL (≈ 18.1 mM)

SMILES: CC(=O)Nc1c(I)c(NC(C)=O)c(I)c(C(=O)N(C)C[C@H](O)[C@@H](O)[C@H](O)[C@H](O)CO)c1I [Compound 25, N-(3,5-diacetamido-2,4,6-triiodobenzoyl)-N-methyl-glucamine]
solubility [3, 12]: 79 mg/mL (≈ 99.9 mM)
solubility [3, 7]: < 200 mg/mL

SMILES: CN(C[C@H](O)[C@@H](O)[C@H](O)[C@H](O)CO)S(=O)(=O)CI [Compound 28, N-(Iodomethane sulphonyl)-N-methylglucamine]
Solubility in hot water ([3]; in words): Very soluble in hot water
solubility ([3]; cold water, read-out: Solubility in cold water): ~100 mg/mL (≈ 250 mM)

SMILES: O=S(=O)(CI)N(CCO)CCO [Compound 29, N-(Iodomethanesulphonyl)-diethanolamine]
Solubility in cold water ([3]; cold water, in words): sparingly soluble in cold
Solubility in hot water ([3]; in words): Soluble in hot water

SMILES: CC(=O)Nc1c(I)cc(I)c(C(=O)N(C)C[C@H](O)[C@@H](O)[C@H](O)[C@H](O)CO)c1I [Compound 30, N-(3-acetamido-2,4,6-triiodobenzoyl)-N-methyl-glucamine]
solubility [3, 7]: > 500 mg/mL

SMILES: CC(=O)N(C)c1c(I)c(C(=O)N(C)C[C@H](O)[C@@H](O)[C@H](O)[C@H](O)CO)c(I)c(N(CCO)C(C)=O)c1I [Compound 35, N-[3-N-methylacetamido-5-N-(β-hydroxyethyl)-acetamido-2,4,6-triiodobenzoyl]-N-methylglucamine]
Intracerebral LD50 [1, 11]: > 750 mgI/kg
Intracerebral LD50 [1, 13]: > 2000 mgI/kg
Osmolality [4]: 0.61 mol/kg
solubility [3, 7]: > 500 mg/mL

SMILES: CC(=O)OCCN(C(C)=O)c1c(I)c(C(=O)N(C)C[C@H](O)[C@@H](O)[C@H](O)[C@H](O)CO)c(I)c(N(C)C(C)=O)c1I [Compound 36, N-[3-N-methylacetamido-5-N-(β-acetoxyethyl)-acetamido-2,4,6-triiodobenzoyl]-N-methylglucamine]
solubility [3, 7]: 200 to 500 mg/mL (≈ 224 to 561 mM)

SMILES: CC(=O)N(CCO)c1c(I)c(C(=O)N(C)C[C@H](O)[C@@H](O)[C@H](O)[C@H](O)CO)c(I)c(N(CCO)C(C)=O)c1I [Compound 43, N-[3,5-bis-N-(β -hydroxyethyl)-acetamido-2,4,6-triiodobenzoyl]-N-methylglucamine]
Intracerebral LD50 [1, 8]: > 1000 mgI/kg
Intracerebral LD50 [1, 13]: > 2000 mgI/kg
Intravenous LD50 [2, 10]: 7500 mgI/kg
solubility [3, 7]: > 500 mg/mL

SMILES: CNC(=O)c1c(I)c(NC(C)=O)c(I)c(C(=O)N(CCO)C[C@H](O)[C@@H](O)[C@H](O)[C@H](O)CO)c1I [Compound 49, N-(3-Acetamido-5-N-methylcarbamoyl-2,4,6-triiodobenzoyl)-N-(2-hydroxyethyl)-glucamine]
Intracerebral LD50 [1, 9]: > 1500 mgI/kg
Intravenous LD50 [2, 10]: 15000 mgI/kg

SMILES: O=S(=O)(O)CI [Iodomethanesulphonic acid, reference compound]
Intracerebral LD50 [1, 5]: 195 mgI/kg

SMILES: CC(=O)Nc1c(I)c(C(=O)O)c(I)c(N(C)C(C)=O)c1I [N-Methyl-3,5-diacetamido-2,4,6-triiodobenzoic acid, reference compound]
Intracerebral LD50 [1, 5]: 130 mgI/kg
Intravenous LD50 [2, 6]: 6000 mgI/kg

Source: patent publication US4021481A, “Amido derivatives of 2,4,6-triiodobenzoic acids containing at least one N-hydroxyalkyl and at least two hydroxyl groups” (Nyegaard & Co. A/S, priority 1969, dated 1977)
